From publication PMC8686256, “DZNep promotes mouse bone defect healing via enhancing both osteogenesis and osteoclastogenesis” (Stem Cell Research & Therapy, 2021)

Experiments:
[1] = tested on: Wnt signaling pathway-related and osteoblast-specified genes in BMSC; test: qPCR of Wnt and osteoblast genes in BMSC; format: cell-based, mouse
Description: BMMs were cultured in 6-well plates at the density of 2 × 10^5 cells/well in α-MEM supplemented with M-CSF (30 ng/ml), RANKL (50 ng/ml). The cells were then treated with or without 25 nM DZNep for 0, 1, 3, 5 days, or with various concentrations of DZNEP (0, 6.25, 25 nM) for 5 days, or with negative control siRNA, negative control siRNA with DZNep, and Foxc1 small interfering RNA (siRNA) with DZNep for 5 days. Once the culture completed, the Axygen RNA Miniprep Kit (Axygen, Union City, CA, USA) was used to extract the total RNA. BMSC were seeded in a 6-well plate at a number of 4 × 10^5 cells/well and treated with 0, 25, 50, 100 nM of DZNep combined with osteoblast-cultured medium for 24 h, or with or without 100 nM DZNep combined with osteoblast-cultured medium for 0 and 7 days, or with negative control siRNA, negative control siRNA with DZNep, and Wnt4 small interfering RNA (siRNA) with DZNep combined with osteoblast-cultured medium for 7 days. Once the culture completed, the Axygen RNA Miniprep Kit (Axygen, Union City, CA, USA) was used to extract the total RNA. After reverse transcription to obtain cDNA from the RNA template by using the Prime Script RT reagent Kit was finished. The real-time PCR assay was subsequently performed by using the SYBR® Premix Ex Taq™ II on an ABI 7500 Sequencing Detection System (Applied Biosystems, Foster City, CA). Specifically, total volume of 10 μl liquid consisted by 5 μl of SYBR® Premix Ex Taq™ II, 1 μl of diluted cDNA, 0.4 μl of mixed forward and reverse primer, and 3.6 μl of ddH2O was added into each hole of 384 PCR plate. Conditions of the 40 cycles were: 95 °C for 5 s and 60 °C for 30 s. The melting curves and reverse transcription PCR (RT-PCR) were the methods to detect the specificity of amplification product. Each target’s quantity, run in triplicate, was normalized to Actin Beta (Actb). […]

MAPKs signaling pathways = test: Western blotting of MAPKs signaling pathways; format: cell-based, mouse; details: RAW264.7, 25 nM pretreatment, vs control
Description: To explore the variation of the proteins on long-term activated signaling, BMMs were cultured in α-MEM containing M-CSF (30 ng/ml) and RANKL (50 ng/ml) at a density of 2 × 10^5 cells/well on 6-well plates. After 24 h, the BMMs were treated with or without 25 nM DZNep for 0, 1, 3, and 5 days, and total protein was obtained, respectively, on these specific time points. To determine the effect of DZNep on the protein of short-time activated phosphorylated, RAW264.7 cells were cultured in α-MEM at a density of 5 × 10^5 cells/well on 6-well plates. One day later, the cells were treated with the serum-free α-MEM in the presence or absence of DZNEP for 3 hand then stimulated with 50 ng/mL RANKL for 0, 10, 20, 30, and 60 min. To determine the efficiency of EZH2 shRna, BMMs were cultured in α-MEM at a density of 5 × 10^5 cells/well on 6-well plates. One day later, the cells were treated with negative control shRNA or different EZH2 shRNA for 2 days. To determine the efficiency of Foxc1 siRna, BMMs were cultured in α-MEM at a density of 5 × 10^5 cells/well on 6-well plates. […] After TBST wash for 3 times, the secondary fluorescence antibodies were incubated without light for 1 h at room temperature and the reactivity was visualized by using Odyssey V3.0 image scanning (Li-COR. Inc., Lincoln, NE, USA). […]

SMILES: Nc1nccc2c1ncn2C1C=C(CO)C(O)C1O (stereo not shown) [DZNep, 3-Deazaneplanocin]
- expression of Wnt4, Wnt1, Wnt6, Wnt10a (qPCR) ([1]; 0, 25, 50, 100 nM, 24 h): increased in a concentration-dependent manner
- expression of Wnt genes after osteoblast-cultured medium for 7 days ([1]; 100 nM, 7 days): obviously upregulated
- expression of osteoblast-specified genes Runx2, Ocn, Opn, Col1a1 ([1]; BMSC, 100 nM 0 and 7 days, 0-100 nM 24 h): enhanced in a time-dependent and dose-dependent manner
- phosphorylation of JNK, p38, and ERK (MAPKs signaling pathways): comparable
